From US20240226079A1, “TOPICAL ANAESTHETIC COMPOSITION HAVING IMPROVED VASOCONSTRICTOR STABILITY” (Animal Ethics Pty Ltd, priority 2021, published 2024)
Read-outs that look alike come from different tables or passages of the source. Values belong to the compound of their own block, whether it stands above or below them.

Assay: Forced degradation studies of the drug substances
Excerpt: Table 4 summarises information on the relative chemical stability of the drug substances, obtained in forced degradation studies.

% Degradation: 51.6%
Compound: CNCC(O)c1ccc(O)c(O)c1 (stereo not shown) [Adrenaline]

% Degradation: 11.2%
Compound: CCCCN1CCCCC1C(=O)Nc1c(C)cccc1C (stereo not shown) [Bupivacaine]

Compound: CCN(CC)CC(=O)Nc1c(C)cccc1C [Lignocaine]
% Degradation (Acid, 8 Weeks): −0.3%
% Degradation (Base, 8 Weeks): 1.1%
% Degradation (Heat, 8 Weeks): 1.1%
% Degradation (Light, 51 × 10^6 lux hrs): 9.9%
% Degradation (Oxidation 1, 8 Weeks): −0.2%
% Degradation (Oxidation 2, 8 Weeks): 3.3%
% Degradation (Reduction, 8 Weeks): −0.3%

Compound: Cetrimide
% Degradation (Acid, 8 Weeks): 0.4%
% Degradation (Base, 8 Weeks): 0.9%
% Degradation (Heat, 8 Weeks): 0.5%
% Degradation (Light, 51 × 10^6 lux hrs): 8.9%
% Degradation (Oxidation 1, 8 Weeks): −0.2%
% Degradation (Oxidation 2, 8 Weeks): 1.0%
% Degradation (Reduction, 8 Weeks): 8.4%
